Test results as given in patent US11648254B2 (Kumquat Biosciences Inc., priority 2021, dated 2023).
pIC50: −log10 of the molar value. Read-outs that look alike come from different tables or passages of the source.

Columns and labels:
[1] = Metabolic (microsomal) stability assay; assay type: in vitro ADME; conditions: mouse liver microsomes, T1/2; read-out: DMPK-invitro-metabolic Stability (Mouse T1/2)
Description: Example 12: Metabolic (Microsomal) Stability Assay

[2] = test system: MIA PaCa-2 cells (K-Ras G12C); assay: Ras-SOS cellular growth inhibition assay (CellTiter-Glo, 3D); assay type: cell-based; conditions: Homo sapiens
In short: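 Growth read by CellTiter-Glo luminescence about 5 days after dosing with 3-fold dilutions (9 points), added one day post-seeding. Cells: MIA PaCa-2, 3D culture on ultra-low-attachment surface, medium DMEM/Ham's F12 plus 10% FCS and 2.5% horse serum; IC50 by four-parameter fit.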

[3] = In vitro plasma protein binding (PPB); assay type: in vitro ADME; conditions: percentage of free/unbound compound
SOS1 = SOS1 (Homo sapiens (Human), UniProt Q07889); assay: Ras-SOS interaction assay (HTRF); assay type: biochemical
SOS1, sequence (Q07889 564-1049): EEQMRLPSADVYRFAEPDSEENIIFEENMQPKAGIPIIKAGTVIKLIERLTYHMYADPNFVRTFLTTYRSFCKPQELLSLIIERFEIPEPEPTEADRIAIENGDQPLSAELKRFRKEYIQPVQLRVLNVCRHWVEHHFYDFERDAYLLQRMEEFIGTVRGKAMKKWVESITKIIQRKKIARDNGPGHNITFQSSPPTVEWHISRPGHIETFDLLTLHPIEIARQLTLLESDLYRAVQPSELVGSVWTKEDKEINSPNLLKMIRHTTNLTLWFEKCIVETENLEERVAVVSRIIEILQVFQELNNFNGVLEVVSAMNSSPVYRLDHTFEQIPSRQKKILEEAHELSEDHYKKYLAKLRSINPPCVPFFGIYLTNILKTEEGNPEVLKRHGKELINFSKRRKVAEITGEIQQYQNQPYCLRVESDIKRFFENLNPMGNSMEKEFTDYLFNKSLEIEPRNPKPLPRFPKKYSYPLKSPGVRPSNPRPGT

[4] = test system: NCI-H1975 cells (EGFR T790M L858R); assay: EGFR-SOS cellular inhibition assay (CellTiter-Glo, 3D); assay type: cell-based; conditions: Homo sapiens
[5] = MIA PaCa-2, 120 h, MIA PaCa-2, 3D proliferation, about 5 days, read-out: Bio-Cell-Prolif-3D (MiaPaca2 IC50)
[6] = MIA PaCa-2, MIA PaCa-2, read-out: IC50 in inhibiting MIA PaCa-2 cell growth
[7] = K-RasG13D utilized, read-out: IC50 inhibition of SOS
[8] = K-RasG13D, read-out: IC50 value against SOS1
[9] = 120 h, NCI-H1975, 3D proliferation, about 5 days, read-out: Bio-Cell-Prolif-3D (H1975 IC50)
[10] = NCI-H1975, EGFR T790M L858R, read-out: IC50 in inhibiting growth of NCI-H1975 cell line

SMILES	half-life [1]	pIC50 [2, 5]	pIC50 [2, 6]	DMPK-invitro-PPB (Mouse Unbound) [%] [3]	pIC50 (SOS1; [7])	pIC50 (SOS1; [8])	pIC50 [4, 9]	pIC50 [4, 10]
C[C@@H](Nc1ncnc2nc(OC3COC3)c(C3(C#N)CC3)cc12)c1cccc(C(F)F)c1F [Compound 400, (R)-1-(4-((1-(3-(difluoromethyl)-2-fluorophenyl)ethyl)amino)-7-(oxetan-3-yloxy)pyrido[2,3-d]pyrimidin-6-yl)cyclopropane-1-carbonitrile]	29.4 min	≥ 6.00	> 6.30		6.00 to 7.00		≥ 6.00	
Cc1nc(N[C@H](C)c2cccc(C(F)F)c2F)c2cc(C3(C#N)CC3)c(OC3COC3)nc2n1 [Compound 402, (R)-1-(4-((1-(3-(difluoromethyl)-2-fluorophenyl)ethyl)amino)-2-methyl-7-(oxetan-3-yloxy)pyrido[2,3-d]pyrimidin-6-yl)cyclopropane-1-carbonitrile]	19.3 min	≥ 6.00	> 6.30		> 7.00		≥ 6.00	
C[C@@H](Nc1ncnc2nc(OC3CN(C)C3)c(C3(C#N)CC3)cc12)c1cccc(C(F)F)c1F [Compound 405, (R)-1-(4-((1-(3-(difluoromethyl)-2-fluorophenyl)ethyl)amino)-7-((1-methylazetidin-3-yl)oxy)pyrido[2,3-d]pyrimidin-6-yl)cyclopropane-1-carbonitrile]	> 200 min	≥ 6.00			> 7.00	> 7.30	≥ 6.00	> 6.30
C[C@@H](Nc1ncnc2nc(O[C@@H]3CCOC3)c(C3(C#N)CC3)cc12)c1cccc(C(F)F)c1F [Compound 409, 1-(4-(((R)-1-(3-(difluoromethyl)-2-fluorophenyl)ethyl)amino)-7-(((R)-tetrahydrofuran-3-yl)oxy)pyrido[2,3-d]pyrimidin-6-yl)cyclopropane-1-carbonitrile]	5.6 min	≥ 6.00			6.00 to 7.00		≥ 6.00	> 6.30
C[C@H](O)C(F)(F)c1cccc([C@@H](C)Nc2ncnc3nc(Cl)c(C4(C#N)CC4)cc23)c1F [Compound 417, 1-(7-chloro-4-(((R)-1-(3-((S)-1,1-difluoro-2-hydroxypropyl)-2-fluorophenyl)ethyl)amino)pyrido[2,3-d]pyrimidin-6-yl)cyclopropane-1-carbonitrile]	> 200 min	≥ 6.00			> 7.00	> 7.30	≥ 6.00	> 6.30

Results, then the molecule that gave them:

half-life [1]	pIC50 [2, 5]	pIC50 [2, 6]	DMPK-invitro-PPB (Mouse Unbound) [%] [3]	pIC50 (SOS1; [7])	pIC50 (SOS1; [8])	pIC50 [4, 9]	pIC50 [4, 10]	SMILES
198 min	≥ 6.00	> 6.30	0.11%	> 7.00	> 7.30	≥ 6.00	> 6.30	COc1nc2nc(C)nc(N[C@H](C)c3cccc(C(F)(F)C(C)(C)O)c3)c2cc1C1(C#N)CC1 [Compound 175, (R)-1-(4-((1-(3-(1,1-difluoro-2-hydroxy-2-methylpropyl)phenyl)ethyl)amino)-7-methoxy-2-methylpyrido[2,3-d]pyrimidin-6-yl)cyclopropane-1-carbonitrile]
> 200 min	≥ 6.00		0.06%	> 7.00	> 7.30	≥ 6.00	> 6.30	COc1nc2nc(C)nc(N[C@H](C)c3cccc(C(F)(F)C(C)(C)O)c3F)c2cc1C1(C#N)CC1 [Compound 207, (R)-1-(4-((1-(3-(1,1-difluoro-2-hydroxy-2-methylpropyl)-2-fluorophenyl)ethyl)amino)-7-methoxy-2-methylpyrido[2,3-d]pyrimidin-6-yl)cyclopropane-1-carbonitrile]
37.2 min	≥ 6.00	> 6.30	0.77%	> 7.00	> 7.30	≥ 6.00	> 6.30	COc1nc2nc(C)nc(N[C@H](C)c3cccc(C(F)(F)[C@H](C)O)c3F)c2cc1C1(C#N)CC1 [Compound 256, 1-(4-(((R)-1-(3-((S)-1,1-difluoro-2-hydroxypropyl)-2-fluorophenyl)ethyl)amino)-7-methoxy-2-methylpyrido[2,3-d]pyrimidin-6-yl)cyclopropane-1-carbonitrile]
